{"source": "paper PMC5944028", "about": "“Nonclinical and clinical pharmacological characterization of the potent and selective cathepsin K inhibitor MIV-711” (Journal of Translational Medicine, 2018)", "key": {"human cathepsin B": {"molecular_target": "T1, human cathepsin B (Homo sapiens, UniProt P07858)", "T1 construct": "purchased Athens Research Technology", "assay": "Enzyme assay, human cathepsin B", "type": "biochemical", "text": "Recombinant cathepsin K enzymes from all species were expressed in E. coli, purified and activated. Human cathepsin F and cathepsin S were expressed in Baculovirus, purified and activated. Purified human cathepsins B and H (Athens Research Technology), cathepsin L (Calbiochem), and cathepsin V (R & D Systems) were purchased.\nH-D-Ala_Leu-Lys-AMC was used as the substrate in assays of cathepsin K from non-rodent species (human, dog, rabbit and guinea pig), and Z-Leu-Arg-AMC was used as the substrate in assays of cathepsin K from rodent species (mouse and rat). […]\nAssays were carried out in white polystyrene 96-well plates in a final volume of 100 µL. […] Plates were read in a Fluoroskan Ascent (Thermo Labsystems, Helsinki, Finland) in kinetic mode, with excitation and emission filters of 390 and 460 nm, respectively. Rates were determined by linear regression of the fluorescence/time data in Excel. Rates were fitted by non-linear regression to either the competitive inhibition equation, with the substrate concentration fixed at the value in the assay and the KM fixed to the value previously determined, or the IC50 equation using GraphPad Prism (GraphPad, version 6, San Diego, USA) to obtain Ki or IC50 values, respectively."}, "plasma CTX-I": {"system": "plasma CTX-I", "assay": "Monkey plasma CTX-I, repeat oral doses", "type": "in vivo, cynomolgus monkeys (Macaca fascicularis)", "method": "Repeat dosing experiments were performed in four male monkeys from the group outlined above (Covance). Vehicle or MIV-711 (30 µmol/kg) was given via oral gavage once daily for 5 days between 7:30 and 8:30 a.m. Plasma for CTX-I measurements was collected on Day 1 at baseline, 1, 2, 4, 8 and 12 h after dose, on Days 2, 3 and 4 early in the morning before next dose (i.e. at trough), and on Day 5 at trough, 1, 2, 4, 8, 12 and 24 h after dose. [drawing 2]\nThe quantification of CTX-I in monkey plasma samples and human serum samples was performed using a commercially available kit (Serum CrossLaps ELISA, IDS Nordic, Herlev, Denmark). The levels of CTX-I in monkey urine samples were measured using a commercially available kit (Urine BETA CrossLaps ELISA, IDS Nordic). The quantification of NTX-I in monkey samples was performed using a commercially available kit (Osteomark NTx Urine, Wampole Laboratories, Inc, Princeton, USA). Urinary levels of CTX-II in monkey samples were measured using a commercially available kit (Urine CrossLaps EIA, IDS Nordic). The concentrations of biomarkers in the urine samples were corrected for creatinine concentrations. The creatinine levels in urine were determined at Swedish University of Agricultural Sciences, using the enzymatic assay (cat no. 8L24-01) on the Abbott system Architect c4000."}, "urine CTX-I": {"system": "urine CTX-I", "assay": "Monkey urine CTX-I, multiple doses", "type": "in vivo, cynomolgus monkeys (Macaca fascicularis)", "method": "(§1) Biomarkers such as NTX-I (bone resorption) and CTX-II (cartilage degradation) are typically measured in urine. Additional experiments in which urine was collected were therefore performed. In these experiments, four cynomolgus monkeys (Macaca fascicularis) were used (Aptuit, Edinburgh, UK). The animals were healthy young females weighing 3.5–4 kg. Animals were dosed with vehicle or MIV-711 via oral gavage at a dose volume of 5 mL/kg between 7:30 and 8:30 a.m. Animals first received vehicle via oral gavage for five consecutive days. After a washout period, the animals then received MIV-711 (30 µmol/kg) via oral gavage for five consecutive days.\n(§2) Urine was collected between 8–12 a.m., 12 a.m.–4 p.m. and 4 p.m.–8 a.m. on Day 1 and Day 5 of respective treatment. Biomarkers were measured in each urine sample, corrected for creatinine, and the mean value of the three samples on Day 1 and Day 5 was calculated. The effect of MIV-711 was evaluated by comparing biomarkers in urine samples collected on Day 1 and Day 5 with respective vehicle sample. [drawing 3]\n(§3) The quantification of CTX-I in monkey plasma samples and human serum samples was performed using a commercially available kit (Serum CrossLaps ELISA, IDS Nordic, Herlev, Denmark). The levels of CTX-I in monkey urine samples were measured using a commercially available kit (Urine BETA CrossLaps ELISA, IDS Nordic). […]"}, "urine NTX-I": {"system": "urine NTX-I", "assay": "Monkey urine NTX-I, multiple doses", "type": "in vivo, cynomolgus monkeys (Macaca fascicularis)", "method": "as §1, §2, §3"}, "urine CTX-II": {"system": "urine CTX-II", "assay": "Monkey urine CTX-II, multiple doses", "type": "in vivo, cynomolgus monkeys (Macaca fascicularis)", "method": "as §1, §2, §3"}, "[1]": {"conditions": "30 µmol/kg p.o. once daily, Day 5"}, "[2]": {"conditions": "30 µmol/kg p.o. once daily for 5 days, creatinine-corrected"}, "[3]": {"conditions": "single dose 30 µmol/kg p.o. (Day 1)"}}}
{"smiles": "C#C[C@@H]1CN(C(=O)[C@H](CC(C)C)NC(=O)c2ccc(-c3nc(N4CCN(C)CC4)sc3F)cc2)[C@@H]2C(=O)CO[C@H]12", "note": "[MIV-711]", "values": [{"measurement": "Ki", "setting": "human cathepsin B", "value": 1.3, "unit": "µM"}, {"measurement": "Maximum reduction of plasma CTX-I from baseline", "setting": "plasma CTX-I; 30 µmol/kg p.o. once daily, Day 1, 12 h post dose", "value": 76, "unit": "%"}, {"measurement": "Maximal reduction of plasma CTX-I vs initial baseline", "setting": "plasma CTX-I; [1]", "value": 67, "unit": "%"}, {"measurement": "Trough plasma CTX-I lower than baseline", "setting": "plasma CTX-I; [1]", "value": 38, "unit": "%"}, {"measurement": "Trough plasma CTX-I lower than baseline", "setting": "plasma CTX-I; 30 µmol/kg p.o., after the first dose on Day 1", "value": 48, "unit": "%"}, {"measurement": "Reduction of urinary CTX-I compared to vehicle", "setting": "urine CTX-I; [2]", "value": 93, "unit": "%"}, {"measurement": "Effect on urinary CTX-I compared to vehicle", "setting": "urine CTX-I; [3]", "value": "immediately reduced"}, {"measurement": "Reduction of urinary NTX-I compared to vehicle", "setting": "urine NTX-I; [2]", "value": 71, "unit": "%"}, {"measurement": "Effect on urinary NTX-I compared to vehicle", "setting": "urine NTX-I; [3]", "value": "immediately reduced"}, {"measurement": "Reduction of urinary CTX-II compared to vehicle", "setting": "urine CTX-II; [2]", "value": 71, "unit": "%"}, {"measurement": "Effect on urinary CTX-II compared to vehicle", "setting": "urine CTX-II; [3]", "value": "unaffected"}]}
